PubChem BioAssay (NCI)
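Interpolation was linear, between the two tested concentrations surrounding the appropriate level; five concentrations were tested over 48 hours in 96-well plates. GI50 = concentration required for 50% inhibition of growth. At the TGI there is no net growth.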

Legend:
Assay in all cases: DTP human tumour cell line panel, 48 h
BT-549 breast = tested on: BT-549 breast
HCT-116 colon = tested on: HCT-116 colon
MDA-N = tested on: MDA-N
M14 melanoma = tested on: M14 melanoma
SR leukemia = tested on: SR leukemia
LXFL 529 NSCLC = tested on: LXFL 529 NSCLC
KM20L2 colon = tested on: KM20L2 colon
DLD-1 colon = tested on: DLD-1 colon
DMS 273 small cell lung = tested on: DMS 273 small cell lung
DMS 114 small cell lung = tested on: DMS 114 small cell lung
XF 498 CNS = tested on: XF 498 CNS
M19-MEL melanoma = tested on: M19-MEL melanoma
SNB-78 CNS = tested on: SNB-78 CNS
HOP-18 NSCLC = tested on: HOP-18 NSCLC
HCC-2998 colon = tested on: HCC-2998 colon

Compound | TGI (BT-549 breast) | TGI (HCT-116 colon) | TGI (MDA-N) | TGI (M14 melanoma) | TGI (SR leukemia) | TGI (HCC-2998 colon) | further results
Cc1ncc(COP(=O)(O)O)c(C)c1O | > 100 µM | > 100 µM | > 100 µM | > 100 µM | > 100 µM | – | –
N=C(N)SCCN1CCCCC1 | 64.9 µM | > 100 µM | > 100 µM | 50.3 µM | 60.1 µM | – | –
O=C1O/C(=C\C=C\CO)C=C1/C=C/CO | 50.9 µM | 29.9 µM | 59.9 µM | 43.1 µM | 71.4 µM | – | –
NC(=S)N/N=C1\CC(c2ccccc2)Nc2ccccc21 (centres undefined) | – | – | – | > 100 µM | – | – | TGI (LXFL 529 NSCLC): > 100 µM; TGI (KM20L2 colon): 47.2 µM; TGI (DLD-1 colon): > 100 µM; TGI (DMS 273 small cell lung): > 100 µM; TGI (DMS 114 small cell lung): 63.4 µM; TGI (XF 498 CNS): 35.2 µM; TGI (M19-MEL melanoma): > 100 µM; TGI (SNB-78 CNS): > 100 µM; TGI (HOP-18 NSCLC): > 100 µM
Cc1ccccc1C1CC(=O)CC(c2ccccc2C)C12C(=O)NC(=S)NC2=O (centres undefined) | – | 49 µM | > 100 µM | 91.8 µM | > 100 µM | 25.2 µM | –
CC(=O)C(N=NC1CCC(S(=O)(=O)NB2N=CS2)CC1)C(=O)Nc1ccccc1C (centres undefined) | – | 26.3 µM | – | 35.5 µM | > 100 µM | 31.4 µM | TGI (LXFL 529 NSCLC): 27.6 µM; TGI (KM20L2 colon): 29.6 µM; TGI (DLD-1 colon): 35.4 µM; TGI (DMS 273 small cell lung): 48 µM; TGI (DMS 114 small cell lung): 26.3 µM; TGI (XF 498 CNS): 33.6 µM; TGI (M19-MEL melanoma): 34.1 µM; TGI (SNB-78 CNS): 67.1 µM; TGI (HOP-18 NSCLC): 80 µM
CCCCCCCCc1ccc(CCC(N)(CO)CO)cc1 | – | – | – | – | 4.28 µM | 2.96 µM | GI50 (HCC-2998 colon): 1.57 µM; GI50 (SR leukemia): 1.39 µM
CC1(Cc2cc3c(cc2C2(c4ccc([N+](=O)[O-])cc4)OCCO2)OCO3)OCCO1 | 98.9 µM | > 100 µM | > 100 µM | > 100 µM | – | > 100 µM | –
COc1cc(O)c2c(=O)c(OC)c(-c3ccc(OC)c(OC)c3)oc2c1.[Zn+2] | > 100 µM | > 100 µM | > 100 µM | > 100 µM | > 100 µM | > 100 µM | GI50 (HCC-2998 colon): 43.1 µM; GI50 (HCT-116 colon): 22.6 µM; GI50 (M14 melanoma): 45.4 µM; GI50 (SR leukemia): > 100 µM
O=S(=O)([O-])[O-].[Fe+2].[OH2+]c1c(Cl)cc(Cl)cc1/C=N/Nc1ccccn1 | – | 2.63 µM | – | 7.44 µM | 4.03 µM | 5.13 µM | TGI (LXFL 529 NSCLC): 1.39 µM; TGI (KM20L2 colon): 3.66 µM; TGI (DLD-1 colon): 1.8 µM; TGI (DMS 114 small cell lung): 0.595 µM; TGI (M19-MEL melanoma): 4.86 µM; GI50 (HOP-18 NSCLC): 0.55 µM; TGI (HOP-18 NSCLC): 1.93 µM
Cc1cccc(/C=C2/C(=O)Nc3ccccc32)n1 | 68.6 µM | 26.2 µM | – | 31.2 µM | 7.3 µM | 22.4 µM | GI50 (SR leukemia): 2.11 µM
C[N+]1(C)C/C(=C\c2ccc(O)cc2)C(=O)/C(=C/c2ccc(O)cc2)C1 | – | > 100 µM | – | > 100 µM | > 100 µM | > 100 µM | TGI (LXFL 529 NSCLC): > 100 µM; TGI (KM20L2 colon): > 100 µM; TGI (DLD-1 colon): > 100 µM; TGI (DMS 273 small cell lung): > 100 µM; TGI (DMS 114 small cell lung): > 100 µM; TGI (M19-MEL melanoma): > 100 µM; TGI (SNB-78 CNS): > 100 µM; TGI (HOP-18 NSCLC): > 100 µM
CCOc1ccc(N=Nc2ccc(-c3ccc(N=Nc4c(O)ccc5cc(S(=O)(=O)O)cc(S(=O)(=O)O)c45)cc3)cc2)cc1 | > 100 µM | > 100 µM | – | > 100 µM | > 100 µM | > 100 µM | –
CC(=O)Oc1cc(/C=C/c2ccc(O)cc2)cc(OC(C)=O)c1 | – | > 100 µM | – | > 100 µM | 48.7 µM | – | –
COc1ccc(OC)c([N+](=O)[O-])c1-c1nc2sc(C)c(C)n2c1/C=N/N=C(N)N | 57.7 µM | > 100 µM | – | > 100 µM | > 100 µM | > 100 µM | –
O=C(/C=C/c1ccc(O)cc1)c1cc(-c2cc(CCC(=O)c3ccc(O)cc3O)ccc2O)c(O)cc1O | > 50 µM | > 50 µM | > 50 µM | > 50 µM | 29.5 µM | – | –
CC(=O)c1c(C)cc2cccc(OC3OC(CO)C(O)C(O)C3O)c2c1O (centres undefined) (tested in a mixture with another compound) | > 100 µM | > 100 µM | > 100 µM | > 100 µM | > 100 µM | > 100 µM | –
CC(=O)[C@]12OC(=O)C3=C1[C@H](CC[C@@H]3C)[C@@H](C)C[C@H]2C=C(C)C | – | 13.4 µM | 16.9 µM | 16.7 µM | 16.8 µM | – | –
